Measured values: patent US10010536B2, “Method of modulating stress-activated protein kinase system” (InterMune, Inc., priority 2005, dated 2018)

Assays:
[1] = system: TNFα release from THP-1 cells stimulated with lipopolysaccharide (LPS); experiment: Inhibition of TNFα release from THP-1 cells stimulated with lipopolysaccharide (LPS); assay type: cell-based; set-up: key to TNF EC50: A: ≤2,000; B: >2,000; C: Inconclusive (e.g., no data or no activity observed); conditions: for EC50: Homo sapiens, read-out: TNF EC50
Experimental: Compounds are screened for the ability to inhibit TNFα release from THP-1 cells stimulated with lipopolysaccharide (LPS) in vitro. The ability of compounds to inhibit TNFα release in this in vitro assay is correlated with the inhibition of p38 activity and TNFα, and is therefore an indicator of potential in vivo therapeutic activity (Lee J. C. et al. 1993 Ann. N.Y. Acad. Sci. 696:149-170; and 1994 Nature 372:739-746).
THP-I cells from ATCC (TIB202) are maintained at 37° C., 5% CO2 in RPMI 1640 media (MediaTech, Herndon, Va.) containing 4.5 g/L glucose, supplemented with 10% fetal bovine serum, 1% penicillin/streptomycin and 50 μM β-mercaptoethanol.
Test compounds are initially dissolved in RPMI media with 1% DMSO (v/v). Compounds are then serially diluted in RPMI media for all subsequent dilutions. The assay is performed under sterile conditions. THP-1 cells at a culture density of 6-8×10^5 cells/ml are collected and resuspended in the RPMI media at 10^6 cells/ml. 100 μl of resuspended cells are added to each well, which contain 100 μl of a test compound. Test compounds are prepared at twice the final concentration. Final DMSO concentration is no more than 0.5% (v/v). Cells are preincubated with compound for 60 minutes at 37° C., 5% CO2 prior to stimulation with lipopolysaccharide (LPS) (Sigma L-2880, 4 mg/ml stock in PBS). The final LPS concentration in each well is […] for TNFα and IL-1β release, respectively. Unstimulated control cell suspensions receive PBS vehicle only. Cell mixtures are incubated for 18 or 48 hours for TNFα and IL-1β release, respectively. 150 μl of supernatants are taken and transferred to a fresh plate and stored at −20° C. until farther analysis. TNFα and IL-1β levels are measured using ELISA kits. A Luminescence is used as the plate reader. Analysis is performed by non-linear regression to generate a dose response curve.

HFL-1 Cells = experiment: Effect of compounds on TGF-β-induced collagen production in HFL-1 cells (Sircol collagen assay); assay type: cell-based; conditions: Homo sapiens, HFL1, 72 h, compound 1 mM, TGF-β1 10 ng/mL, three days, read-out: % Inhibition of TGF-β Stimulated Collagen Synthesis
Experimental: HFL-1 Cells (ATCC, Rockville, Md.) were grown under regular tissue culture conditions in complete media containing 10% fetal bovine serum (FBS; Mediatech, Inc., Herndon, Va.). Cells in early passage were plated in 6 well plates. When the cells reached confluence, the media was removed, cells washed with PBS, and the cells were kept overnight in complete media containing 0.1% FBS. The media was then replaced with fresh media plus 0.1% FCS, 10 μM L-Proline (EMD Chemicals, Gibbstown, N.J.), 20 μg/mL ascorbic acid (EMD Chemicals, Gibbstown, N.J.). Compounds were added to triplicate wells to a final concentration of 1 mM from 100× stock solutions in DMSO. One hour after the addition of compound, the cells were treated with TGF-β1 (Sigma-Aldrich, St. Louis, Mo.) to a final concentration of 10 ng/mL (25 ng total). Three days after addition of TGF-β, the media was removed, cells were washed with PBS and then lysed. The total collagen content of lysed cells was assessed with a dye-based collagen assay (Sircol Collagen Assay, Newtownabbey, Northern Ireland) and a μQuant plate-based spectrophotometer (BioTek Insturments, Inc., Winooski, Vt.) with appropriate standard curves. The dynamic range of the assay is defined by cells that were mock treated (1% DMSO without compound) in the presence and absence of TGF-β.

THP-1 cells = experiment: Compound toxicity testing in a cell based assay (LDH release, ATP and/or MTT assay); conditions: given as concentration
Experimental: The release of LDH as result of a disrupted cell membrane is applied as a measure of cell toxicity. […] THP-1 cells are used for determination of cell toxicity for consistency with the induced TNFα expression in the previous experiment. […] The compounds are added at different concentrations in triplicate. The appropriate solvent control is used in each assay. After compound addition the cells are cultured 18 hours under regular tissue culture conditions. After this incubation period, the positive control is initiated by adding Triton-X-100 (2% v/v) to untreated cells and incubated for an additional 10 minutes for complete cell lysis. Subsequently the cells are sedimented by centrifugation and a fraction of the supernatant removed and analyzed for LDH enzyme activity according to the manufacturer's instructions. The data is typically reported as % cell toxicity normalized to the Triton-X-100 lysed cells as 100% cell toxicity.
Toxicity data are also obtained using a commercially available ATP assay (Molecular Probes' ATP Determination Kit A22066, available from Invitrogen) and/or using a MTT assay. Both the ATP and the MTT assays measure metabolic competence of the cell. The MTT assay measures the ability of the cell to reduce a marker substrate, which is related to metabolic competence (i.e. viability). The ATP assay measures the cellular ATP concentration in the presence and absence of compound. Toxic compounds lead to reduced metabolic activity which leads to a reduction in ATP concentration.

[2] = Pharmacokinetic properties in dual canulated Sprague Dawley rats; assay type: in vivo; set-up: Clobs: unit not given here; conditions: rat; for AUC(0-t) / MRT inf / half-life: male, Sprague Dawley, plasma
Experimental: The pharmacokinetic (PK) properties of pirfenidone, pirfenidone analogs and derivatives were assessed in dual canulated (right jugular/left carotid) Sprague Dawley rats (Charles River Laboratories, Inc., Wilmington, Mass.). Male rats weighing approximately 275-300 g were administered an intravenous (5 mg/Kg) or oral (50 mg/Kg via gavage) dose of compound in an appropriate formulation. Plasma samples were collected via intra-arterial canula at desired times in the 24 hours after dosing using EDTA as an anticoagulant. Three animals were used for each compound. All experiments were conducted by trained personnel in accordance with guidelines of the appropriate Institutional Animal Care and Use Committees (IACUC). Compound concentrations were assessed by LC-MS using a MDS SCIEX API 3000 mass spectrometer (Applied Biosystems, Foster City, Calif.) coupled to a Shimadzu VP HPLC (Shimadzu Corp., Kyoto, Japan) outfitted with a Duragel G C18 guard cartridge (Peeke Scientific, Redwood City, Calif.). Calibration samples were prepared by mixing known amounts of pirfenidone, or a pirfenidone analog or derivative, with rat plasma. A standard curve was created by serial dilution of the calibration sample in the same matrix. Both standard and analytical samples were prepared for injection to the HPLC by mixing an aliquot of plasma sample with 3 volumes of ice cold acetonitrile containing internal standard. Samples were then centrifuged. An aliquot of the resulting supernatant was then mixed with five volumes of 0.2% formic acid in water, injected to the HPLC, and resolved in a methanol gradient (containing 0.18-0.2% formic acid). The integrated analyte signal was corrected for that of the internal standard and compared to the appropriate standard curve in order to define the analyte concentration. The pharmacokinetic parameters shown in Table 4 were derived using the WinNonlin Software package (Pharsight Corp, Mountain View, Calif.).

SMILES | EC50 [1] | TNF EC50 [1] | also measured
O=c1ccc(C(F)(F)F)cn1-c1ccc(O)cc1 [Compound 10, 1-(4-hydroxyphenyl)-5-(trifloromethyl)-2-pyridone] | ≤ 2000 µM |  | 
O=c1ccc(Br)cn1-c1ccc(O)cc1 [Compound 30] | ≤ 2000 µM |  | inhibition at 1000 µM (HFL-1 Cells): 69%
Cc1ccc(=O)n(-c2ccc(F)cc2)c1 [Compound 14] | > 2000 µM |  | inhibition at 1000 µM (HFL-1 Cells): 23%
Cc1cc(O)c(=O)n(-c2ccccc2)c1 [Compound 4] | ≤ 2000 µM |  | Toxicity (THP-1 cells): ≥1 mM
O=c1ccc(-c2ccccc2)cn1-c1ccccc1 [Compound 17] |  | C | 
O=C(O)c1ccc(=O)n(-c2ccccc2)c1 [Compound 2] |  | C | 
O=c1ccccn1-c1ccc(F)cc1 [Compound 11] | > 2000 µM |  | 
O=c1ccc(C(F)(F)F)cn1-c1ccccc1 [Compound 8] | > 2000 µM |  | AUC(0-t) ([2]; IV, 5 mg/kg): 30200 ng·h/mL; MRT inf ([2]; IV, 5 mg/kg): 20.3 h; half-life ([2]; IV, 5 mg/kg): 13.9 h; AUC(0-t) ([2]; Oral, 50 mg/kg): 122000 ng·h/mL; Clobs ([2]; IV, 5 mg/kg): 0.117; E ([2]; Oral, 50 mg/kg): 40.5%; inhibition at 1000 µM (HFL-1 Cells): 48%
COCc1ccc(=O)n(-c2ccccc2)c1 [Compound 6] | ≤ 2000 µM |  | Toxicity (THP-1 cells): ≥1 mM
COc1ccc(-n2cc(C(F)(F)F)ccc2=O)cc1 [Compound 15] |  | C | inhibition at 1000 µM (HFL-1 Cells): 49%
Cc1ccc(=S)n(-c2ccccc2)c1 [Compound 18, 1-phenyl-5-methyl-2-pyridinethione] |  | C | 
COC(=O)c1ccc(=O)n(-c2ccccc2)c1 [Compound 24] |  | C | 
O=c1ccc(C(F)F)cn1-c1ccccc1 [Compound 19] |  |  | AUC(0-t) ([2]; IV, 5 mg/kg): 35000 ng·h/mL; MRT inf ([2]; IV, 5 mg/kg): 6.26 h; half-life ([2]; IV, 5 mg/kg): 2.96 h; AUC(0-t) ([2]; Oral, 50 mg/kg): 192000 ng·h/mL; Clobs ([2]; IV, 5 mg/kg): 0.142; E ([2]; Oral, 50 mg/kg): 54.8%
Cc1ccc(=O)n(-c2ccc(O)cc2)c1 [Compound 5] | ≤ 2000 µM |  | Toxicity (THP-1 cells): ≥1 mM
O=c1ccc2cc(Br)ccc2n1-c1ccccc1 [Compound 33] |  | C | 
O=c1ccc(C(F)F)cn1-c1ccc(O)cc1 [Compound 29] |  | C | 
COc1ccc(-n2cc(Br)ccc2=O)cc1 [Compound 27] | ≤ 2000 µM |  | 
CC(=O)c1ccc(=O)n(-c2ccccc2)c1 [Compound 16, 1-phenyl-5-acetyl-2-pyridone] |  | C | 
O=c1ccccn1-c1ccc(O)cc1 [Compound 9] |  | C | 
O=c1ccc(C(F)(F)F)cn1-c1ccc(F)cc1 [Compound 12] |  | C | 
O=c1ccccn1-c1ccccc1 [Compound 7] | > 2000 µM |  | 
O=c1ccc(Br)cn1-c1ccccc1 [Compound 26] | ≤ 2000 µM |  | AUC(0-t) ([2]; IV, 5 mg/kg): 10300 ng·h/mL; MRT inf ([2]; IV, 5 mg/kg): 2.4 h; half-life ([2]; IV, 5 mg/kg): 1.62 h; AUC(0-t) ([2]; Oral, 50 mg/kg): 65800 ng·h/mL; Clobs ([2]; IV, 5 mg/kg): 0.691; E ([2]; Oral, 50 mg/kg): 63.9%; inhibition at 1000 µM (HFL-1 Cells): 58%
COc1ccc(-n2cc(C(F)F)ccc2=O)cc1 [Compound 32] | ≤ 2000 µM |  | 
Cc1ccc(=O)n(-c2ccccc2)c1 [Compound 13, 5-methyl-1-phenyl-2-(1H)-pyridone, reference compound] | ≤ 2000 µM |  | Toxicity (THP-1 cells): ≥1 mM
O=c1ccc(CO)cn1-c1ccccc1 [Compound 1] | > 2000 µM |  | 
O=c1ccc(CF)cn1-c1ccc(O)cc1 [Compound 28] |  | C | 
Cc1ccc(=O)n(-c2cc[n+](C)cc2)c1 [Compound 25] | > 2000 µM |  | 
COc1ccc(-n2cc(CF)ccc2=O)cc1 [Compound 31] | ≤ 2000 µM |  | 
